Earlier results as cited in patent US20250339446A1 (Kessler Foundation Inc., priority 2016, published 2025).

What was measured:
[1] = test system: BMD in the vertebrae; details: men with idiopathic osteoporosis; cited from earlier work
[2] = daily administration; cited from earlier work
[3] = test system: muscle mass, muscle strength, and bone; details: androgen-deficient men and older men with low testosterone levels; testosterone alone; cited from earlier work
[4] = test system: bone mineral density (BMD); details: rat, hind limb unweighting; cited from earlier work

SMILES | BMD in the vertebrae [1] | absorption and elimination after transdermal application [2] | muscle mass, muscle strength, and bone [3] | immobilization-related decrease in BMD [4]
C[C@]12CC[C@H]3[C@@H](CCC4=CC(=O)CC[C@@]43C)[C@@H]1CC[C@@H]2O [testosterone] | increased BMD in the vertebrae | absorbed and eliminated over the course of a day | increase muscle mass, muscle strength, and bone | blocked much of the immobilization-related decrease in BMD
C[C@]12CC[C@H]3[C@@H](CCC4=CC(=O)CC[C@@H]43)[C@@H]1CC[C@@H]2O [nandrolone] | – | – | – | blocked much of the immobilization-related decrease in BMD
